Molecular target: T1, p53 Y220C (Homo sapiens, UniProt P04637, Y220C)
T1 construct: The recombinant protein was a truncation mutant containing only amino acids 94-312 of p53; made in house; host or cells: E. coli
Test: In vitro DNA binding activity assay (HTRF / TR-FRET): stabilization of p53 Y220C and increase of its DNA binding activity
Assay type: biochemical
Details: recombinant His-tagged p53 Y220C DNA binding domain (aa 94-312), biotin-labeled consensus DNA, incubated at 27° C. or 29° C. for 60 min
In short: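 E. coli His-p53 Y220C + biotin consensus DNA; anti-His-APC/SA-Eu TR-FRET. SC150 vs no-compound.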

T1 sequence (P04637 94-312, change not shown): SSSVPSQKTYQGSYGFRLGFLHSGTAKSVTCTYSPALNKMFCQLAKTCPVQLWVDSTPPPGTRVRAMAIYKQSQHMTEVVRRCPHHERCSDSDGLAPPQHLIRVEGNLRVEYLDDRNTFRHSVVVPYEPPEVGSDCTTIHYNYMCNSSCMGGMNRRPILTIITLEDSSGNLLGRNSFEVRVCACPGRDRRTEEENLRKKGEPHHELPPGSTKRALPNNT

SC150 (concentration of the compound required to increase the DNA binding activity by 50%)	Structure (SMILES)
+ (+ = 0 μM ≤ SC150 < 0.05 μM)	COc1cc(C(N)=O)ccc1NCC#Cc1cc2c(N[C@H]3CC[C@@H](N4CC5(COC5)C4)CC3)cccc2n1CC(F)(F)F [Compound 213A, 3-methoxy-4-{[3-(4-{[(1S,4S)-4-{2-oxa-6-azaspiro[3.3]heptan-6-yl}cyclohexyl]amino}-1-(2,2,2-trifluoroethyl)-1H-indol-2-yl)prop-2-yn-1-yl]amino}benzamide]
+ (+ = 0 μM ≤ SC150 < 0.05 μM)	COCCN1CC[C@H](Nc2cccc3c2cc(C#CCNc2ccc(C(=O)O)cc2OC)n3CC(F)(F)F)[C@H](F)C1 [Compound 904A]
+ (+ = 0 μM ≤ SC150 < 0.05 μM)	COc1cc(C(N)=O)ccc1NCC#Cc1cc2c(N[C@H]3CCN(C)C[C@H]3F)cccc2n1CC(F)(F)F (racemic) [Compound 782A, rac-4-{[3-(4-{[(3R,4S)-3-fluoro-1-methylpiperidin-4-yl]amino}-1-(2,2,2-trifluoroethyl)-1H-indol-2-yl)prop-2-yn-1-yl]amino}-3-methoxybenzamide]
+ (+ = 0 μM ≤ SC150 < 0.05 μM)	CCN1CC[C@H](Nc2cccc3c2cc(C#CCNc2ccc(C(=O)O)cc2OC)n3CC(F)(F)F)[C@H](F)C1 [Compound 828A, 4-{[3-(4-{[(3R,4S)-1-ethyl-3-fluoropiperidin-4-yl]amino}-1-(2,2,2-trifluoroethyl)-1H-indol-2-yl)prop-2-yn-1-yl]amino}-3-methoxybenzoic acid]
+ (+ = 0 μM ≤ SC150 < 0.05 μM)	CNC(=O)c1ccc(NCC#Cc2cc3c(NC4CCN(C)CC4)cccc3n2CC(F)(F)F)c(OC)c1 [Compound 482A, 3-methoxy-N-methyl-4-[(3-{4-[(1-methylpiperidin-4-yl)amino]-1-(2,2,2-trifluoroethyl)-1H-indol-2-yl}prop-2-yn-1-yl)amino]benzamide]
+ (+ = 0 μM ≤ SC150 < 0.05 μM)	COc1cc(C(=O)NCC(COC(=O)C(C)C)OC)ccc1NCC#Cc1cc2c(N[C@@H]3CCN(C)C[C@@H]3F)cccc2n1CC(F)(F)F (stereo partly drawn) [Compound 1061A, 3-[(4-{[3-(4-{[(3S,4R)-3-fluoro-1-methylpiperidin-4-yl]amino}-1-(2,2,2-trifluoroethyl)-1H-indol-2-yl)prop-2-yn-1-yl]amino}-3-methoxyphenyl)formamido]-2-methoxypropyl 2-methylpropanoate]
+ (+ = 0 μM ≤ SC150 < 0.05 μM)	COc1cc(C(N)=O)ccc1NCC#Cc1cc2c(N[C@@H]3CCNC[C@@H]3F)cccc2n1CC(F)(F)F [Compound 849A, 4-{[3-(4-{[(3S,4R)-3-fluoropiperidin-4-yl]amino}-1-(2,2,2-trifluoroethyl)-1H-indol-2-yl)prop-2-yn-1-yl]amino}-3-methoxybenzamide]
+ (+ = 0 μM ≤ SC150 < 0.05 μM)	COc1cc(S(C)(=O)=O)ccc1NCC#Cc1cc2c(N[C@H]3CCN(CC(N)=O)C[C@H]3F)cccc2n1CC(F)(F)F (racemic) [Compound 811A, rac-2-[(3R,4S)-3-fluoro-4-[(2-{3-[(4-methanesulfonyl-2-methoxyphenyl)amino]prop-1-yn-1-yl}-1-(2,2,2-trifluoroethyl)-1H-indol-4-yl)amino]piperidin-1-yl]acetamide]
+ (+ = 0 μM ≤ SC150 < 0.05 μM)	CCC(=O)OCC(CNC(=O)c1ccc(NCC#Cc2cc3c(N[C@@H]4CCN(C)C[C@@H]4F)cccc3n2CC(F)(F)F)c(OC)c1)OC(=O)CC (stereo partly drawn) [Compound 971A, 1-[(4-{[3-(4-{[(3S,4R)-3-fluoro-1-methylpiperidin-4-yl]amino}-1-(2,2,2-trifluoroethyl)-1H-indol-2-yl)prop-2-yn-1-yl]amino}-3-methoxyphenyl)formamido]-3-(propanoyloxy)propan-2-ylpropanoate]
+ (+ = 0 μM ≤ SC150 < 0.05 μM)	COC(=O)c1ccc(NCC#Cc2cc3c(N[C@H]4CCN(CC(=O)N(C)C)C[C@H]4F)cccc3n2CC(F)(F)F)c(OC)c1 [Compound 914A, methyl 4-{[3-(4-{[(3R,4S)-1-[(dimethylcarbamoyl)methyl]-3-fluoropiperidin-4-yl]amino}-1-(2,2,2-trifluoroethyl)-1H-indol-2-yl)prop-2-yn-1-yl]amino}-3-methoxybenzoate]
+ (+ = 0 μM ≤ SC150 < 0.05 μM)	COc1cc(S(C)(=O)=O)ccc1NCC#Cc1cc2c(N[C@@H]3CCO[C@@H](C)C3)cccc2n1CC(F)(F)F [Compound 1016A, 2-{3-[(4-methanesulfonyl-2-methoxyphenyl)amino]prop-1-yn-1-yl}-N-[(2S,4R)-2-methyloxan-4-yl]-1-(2,2,2-trifluoroethyl)-1H-indol-4-amine]
+ (+ = 0 μM ≤ SC150 < 0.05 μM)	CN1CC[C@@H](Nc2cccc3c2cc(C#CCNC(=O)c2cnn(C(C)(C)C)c2)n3CC(F)(F)F)[C@@H](F)C1 [Compound 1066A, 1-tert-butyl-N-[3-(4-{[(3S,4R)-3-fluoro-1-methylpiperidin-4-yl]amino}-1-(2,2,2-trifluoroethyl)-1H-indol-2-yl)prop-2-yn-1-yl]-1H-pyrazole-4-carboxamide]

The next lines start with the compound.

Structure (SMILES)	SC150 (concentration of the compound required to increase the DNA binding activity by 50%)
COCCN(C)[C@H]1CC[C@@H](Nc2cccc3c2cc(C#CCNc2ccc(S(C)(=O)=O)cc2OC)n3CC(F)(F)F)CC1 [Compound 56A, (1S,4S)-N^4-(2-{3-[(4-methanesulfonyl-2-methoxyphenyl)amino]prop-1-yn-1-yl}-1-(2,2,2-trifluoroethyl)-1H-indol-4-yl)-N^1-(2-methoxyethyl)-N^1-methylcyclohexane-1,4-diamine]	+ (+ = 0 μM ≤ SC150 < 0.05 μM)
COc1cc(S(=O)(=O)N(CCO)CCO)ccc1NCC#Cc1cc2c(N[C@H]3CC[C@H](N(C)C)CC3)cccc2n1CC(F)(F)F [Compound 70A, N,N-bis(2-hydroxyethyl)-3-methoxy-4-{[3-(4-{[(1R,4R)-4-(dimethyl-amino)cyclohexyl]amino}-1-(2,2,2-trifluoroethyl)-1H-indol-2-yl)prop-2-yn-1-yl]amino}benzene-1-sulfonamide]	+ (+ = 0 μM ≤ SC150 < 0.05 μM)
COc1cc(S(C)(=O)=O)ccc1NCC#Cc1cc2c(N[C@H]3CC[C@@H](N4CC5CC(C4)O5)CC3)cccc2n1CC(F)(F)F [Compound 399A, 2-{3-[(4-methanesulfonyl-2-methoxyphenyl)amino]prop-1-yn-1-yl}-N-[(1S,4S)-4-{6-oxa-3-azabicyclo[3.1.1]heptan-3-yl}cyclohexyl]-1-(2,2,2-trifluoroethyl)-1H-indol-4-amine]	+ (+ = 0 μM ≤ SC150 < 0.05 μM)
CS(=O)(=O)c1ccc(NCC#Cc2cc3c(NC4CCOCC4)cccc3n2CC(F)(F)F)c(OC(F)(F)F)c1 [Compound 991A, 2-(3-{[4-methanesulfonyl-2-(trifluoromethoxy)phenyl]amino}prop-1-yn-1-yl)-N-(oxan-4-yl)-1-(2,2,2-trifluoroethyl)-1H-indol-4-amine]	+ (+ = 0 μM ≤ SC150 < 0.05 μM)
CN1CCC(Nc2cccc3c2cc(C#CCNC(=O)c2cccnc2)n3CC(F)(F)F)CC1 [Compound 505A, N-(3-{4-[(1-methylpiperidin-4-yl)amino]-1-(2,2,2-trifluoroethyl)-1H-indol-2-yl}prop-2-yn-1-yl)pyridine-3-carboxamide]	+++ (+++ = 0.1 μM ≤ SC150 < 0.2 μM)
CN(C)[C@H]1CC[C@H](Nc2cccc3c2cc(C#CCNc2ccc(S(C)(=O)=O)cc2OCF)n3CC(F)(F)F)CC1 [Compound 117A, (1R,4R)—N^1-(2-(3-((2-(fluoromethoxy)-4-(methylsulfonyl)phenyl)amino)prop-1-yn-1-yl)-1-(2,2,2-trifluoroethyl)-1H-indol-4-yl)-N^4,N^4-dimethylcyclohexane-1,4-diamine]	+ (+ = 0 μM ≤ SC150 < 0.05 μM)
COCC(O)CN1CCC(Nc2cccc3c2cc(C#CCNc2ccc(S(C)(=O)=O)cc2OC)n3CC(C)(F)F)CC1 (stereo not shown) [Compound 712A, 1-(4-{[1-(2,2-difluoropropyl)-2-{3-[(4-methanesulfonyl-2-methoxyphenyl)amino]prop-1-yn-1-yl}-1H-indol-4-yl]amino}piperidin-1-yl)-3-methoxypropan-2-ol]	++ (++ = 0.05 μM ≤ SC150 < 0.1 μM)
COc1cc(S(N)(=O)=O)ccc1NCC#Cc1cc2c(N[C@H]3CC[C@@H](N4C[C@H](O)[C@@H](O)C4)CC3)cccc2n1CC(F)(F)F [Compound 58A, 3-methoxy-4-{[3-(4-{[(1S,4S)-4-[(3S,4S)-3,4-dihydroxypyrrolidin-1-yl]cyclohexyl]amino}-1-(2,2,2-trifluoroethyl)-1H-indol-2-yl)prop-2-yn-1-yl]amino}benzene-1-sulfonamide]	+ (+ = 0 μM ≤ SC150 < 0.05 μM)
CCC(=O)O[C@H](COC)CN1CCC(Nc2cccc3c2cc(C#CCNc2ccc(S(C)(=O)=O)cc2OC)n3CC(F)(F)F)CC1 [Compound 715A, (2S)-1-{4-[(2-{3-[(4-methanesulfonyl-2-methoxyphenyl)amino]prop-1-yn-1-yl}-1-(2,2,2-trifluoroethyl)-1H-indol-4-yl)amino]piperidin-1-yl}-3-methoxypropan-2-yl propanoate]	+ (+ = 0 μM ≤ SC150 < 0.05 μM)
CS(=O)(=O)c1ccc(NCC#Cc2cc3c(N[C@H]4CC[C@H](N5CC6(CCOCC6)C5)CC4)cccc3n2CC(F)(F)F)c(OCC#N)c1 [Compound 303A, 2-(5-methanesulfonyl-2-{[3-(4-{[(1R,4R)-4-{7-oxa-2-azaspiro[3.5]nonan-2-yl}cyclohexyl]amino}-1-(2,2,2-trifluoroethyl)-1H-indol-2-yl)prop-2-yn-1-yl]amino}phenoxy)acetonitrile]	+ (+ = 0 μM ≤ SC150 < 0.05 μM)

— US12428406B2 (PMV Pharmaceuticals, Inc., priority 2019, dated 2025)
